Assay results taken from US20220265590A1, “DIBENZYLAMINES AS AMINO ACID TRANSPORT INHIBITORS” (VANDERBILT UNIVERSITY, priority 2019, published 2022).

Key:
HEK293 cells [1] = experiment: Viability (Cell Titer, CellTiter-Glo); assay type: cell-based; settings: Homo sapiens, 48 h incubation, 96-well plate
Method: Viability (Cell Titer) was evaluated using a commercially available chemiluminescent reagents (CellTiter-Glo, Promega Corp. G7572) in 96-well plate format according to the manufacturers protocol. Cells were exposed to either vehicle or test agent at the indicated concentrations and incubated for a period of 48 h. Subsequently, CellTiter-Glo reagent was added and the plates were read using a plate reader (BioTek Synergy 4) with standard settings.

HEK293 cells [2] = experiment: Glutamine uptake inhibition assay (3H-labeled glutamine accumulation in live cells); assay type: cell-based; settings: Homo sapiens, 15 minutes incubation with 3H-GLN (500 nM), assay buffer pH 6, triplicate, read-out: ^3H Glut IC50
Method: Twenty-four hours prior to assay, HEK293 cells were seeded at a density of 12K cells per well into a 96 well plate (coated with poly-D-Lysine). […] Accumulation of 3H-labeled glutamine (3H-GLN) in live cells was assessed by incubation for 15 minutes with vehicle or test reagent at the concentrations indicated. The final concentration of 3H-GLN was 500 nM. Each compound was evaluated in triplicate. For the assay, cells were rinsed with assay buffer (pH 6) three times (100 uL). Compounds were transferred in a single-add protocol and incubated for 15 minutes with 3H-GLN. After the uptake period, the supernatant was removed and cell monolayers were washed 3× with 100 μl assay buffer. Subsequently, cells were lysed with 50 μl 1M NaOH and 150 μl scintillation liquid was added to each well. The plate was incubated at room temperature for 20 minutes, transferred to 4° C. storage overnight, and read the next day using a top-count plate reader (Perkin Elmer).

Row | SMILES | IC50 (HEK293 cells [1]) [µM] | IC50 (HEK293 cells [2]) [µM]
1 | N[C@@H](CCN(Cc1ccccc1OCc1ccc(Cl)cc1)Cc1ccccc1Oc1ccc(Cl)cc1)C(=O)O [Cpd. No. 11, (S)-2-amino-4-((2-((4-chlorobenzyl)oxy)benzyl)(2-(4-chlorophenoxy)benzyl)amino)butanoic acid] | 12.7 | < 100
2 | Cc1cccc(COc2ccccc2CN(CC[C@H](N)C(=O)O)Cc2ccccc2Oc2ccc(Cl)cc2)c1 [Cpd. No. 21, (S)-2-amino-4-((2-(4-chlorophenoxy)benzyl)(2-((3-methylbenzyl)oxy)benzyl)amino) butanoic acid] | 28.9 | 25.1
3 | N[C@@H](CCN(Cc1ccccc1OCc1ccccc1F)Cc1ccccc1Oc1ccc(Cl)cc1)C(=O)O [compound 10, (S)-2-amino-4-((2-(4-chlorophenoxy)benzyl)(2-((2-fluorobenzyl)oxy)benzyl)amino)butanoic acid] |  | 43
4 | N[C@@H](CCN(Cc1ccccc1OCc1ccccc1F)Cc1ccccc1Oc1ccccc1F)C(=O)O [compound 7, (S)-2-amino-4-((2-((2-fluorobenzyl)oxy)benzyl)(2-(2-fluorophenoxy)benzyl)amino)butanoic acid] | 18.7 | 94.2
5 | COc1cccc(COc2ccccc2CN(CC[C@H](N)C(=O)O)Cc2ccccc2Oc2ccc(Cl)cc2)c1 [Cpd. No. 20, (S)-2-amino-4-((2-(4-chlorophenoxy)benzyl)(2-((3-methoxybenzyl)oxy)benzyl)amino) butanoic acid] | 13.9 | 3.19
6 | N[C@@H](CCN(Cc1ccccc1OCc1ccc(F)cc1)Cc1ccccc1Oc1ccc(Cl)cc1)C(=O)O [compound 15, (S)-2-amino-4-((2-(4-chlorophenoxy)benzyl)(2-((4-fluorobenzyl)oxy)benzyl)amino)butanoic acid] |  | 31.4
7 | N[C@@H](CCN(Cc1ccccc1OCc1ccc(F)cc1)Cc1ccccc1Oc1ccccc1F)C(=O)O [compound 8, (S)-2-amino-4-((2-((4-fluorobenzyl)oxy)benzyl)(2-(2-fluorophenoxy)benzyl)amino)butanoic acid] |  | 117
8 | COc1ccc(Oc2ccccc2CN(CC[C@H](N)C(=O)O)Cc2ccccc2OCc2ccc(F)cc2)cc1 [compound 13, (S)-2-amino-4-((2-((4-fluorobenzyl)oxy)benzyl)(2-(4-methoxyphenoxy)benzyl)amino)butanoic acid] |  | 29
9 | COc1ccc(Oc2ccccc2CN(CC[C@H](N)C(=O)O)Cc2ccccc2OCc2ccc(Cl)cc2)cc1 [compound 14, (S)-2-amino-4-((2-((4-chlorobenzyl)oxy)benzyl)(2-(4-methoxyphenoxy)benzyl)amino)butanoic acid] |  | 164
